Results as given in patent US7846697B2, “Method of producing a low molecular weight organic compound in a cell” (BLMaps, priority 2003, dated 2010).

Legend:
[1] = Halkier and Møller, 1989; cited from earlier work

Row | Compound | toxicity to microbial organisms compared with the aglycon vanillin (microbial organisms) | stability in aqueous solutions [1]
1 | COc1cc(C=O)ccc1O[C@@H]1O[C@H](CO)[C@@H](O)[C@H](O)[C@H]1O [vanillin glucoside, vanillin-β-D-glucoside] | much less toxic | 
2 | N#CC(O)c1ccc(O)cc1 (centres unmarked) [p-hydroxymandelonitrile] |  | highly unstable
